Results: PubChem BioAssay AID1963962 (Molecular Pharmacology Branch, DTP, NCI, 2024)
Each block holds one compound with its values, some of them ahead of it.

System: 967376-340-R-J2-PDC multicell spheroid viability
Assay: Anticancer human tumor 967376-340-R-J2-PDC patient-derived colon adenocarcinoma cell line growth inhibition [PI3K]
Settings: for IC50: curve of first compound; for viability, T/C: stronger effect = lower value
How it was run: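 Viability of mixed-cell spheroids was determined after exposure to pairwise combinations, one partner being inavolisib, alpelisib, duvelisib or copanlisib. Highest tested concentration matched clinical Cmax where known and 10 microM where not, descending in half-log steps.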

[1] = second compound 0.00316 µM, first compound 0.0316 µM
[2] = second compound 0.00316 µM, first compound 0.1 µM
[3] = second compound 0.01 µM, first compound 0.0316 µM
[4] = second compound 0.01 µM, first compound 0.1 µM
[5] = second compound 0.0316 µM, first compound 0.0316 µM
[6] = second compound 0.0316 µM, first compound 0.1 µM
[7] = second compound 0.1 µM, first compound 0.0316 µM
[8] = second compound 0.1 µM, first compound 0.1 µM
[9] = second compound 0.316 µM, first compound 0.0316 µM
[10] = second compound 0.316 µM, first compound 0.1 µM
[11] = second compound 1 µM, first compound 0.0316 µM
[12] = second compound 1 µM, first compound 0.1 µM
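Further: spheroids exposed to agents for 7 days before read-out.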
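Wherever viability, T/C is given: luminescence used as surrogate of cell viability.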

- IC50 (second compound 0.00316 µM): > 0.1 µM
- IC50 (second compound 0.01 µM): > 0.1 µM
- IC50 (second compound 0.0316 µM): > 0.1 µM
- IC50 (second compound 0.1 µM): > 0.1 µM
- IC50 (second compound 0.316 µM): < 0.000316 µM
- IC50 (second compound 1 µM): < 0.000316 µM
SMILES: CC(=O)c1c(C)c2cnc(Nc3ccc(N4CCNCC4)cn3)nc2n(C2CCCC2)c1=O + COc1c(OCCCN2CCOCC2)ccc2c3n(c(=NC(=O)c4cnc(N)nc4)nc12)CCN3
- viability, T/C (second compound 0.00316 µM, first compound 0.000316 µM): 92.9%
- viability, T/C (second compound 0.00316 µM, first compound 0.001 µM): 95.8%
- viability, T/C (second compound 0.00316 µM, first compound 0.00316 µM): 94.7%
- viability, T/C (second compound 0.00316 µM, first compound 0.01 µM): 88.5%
- viability, T/C [1]: 87.5%
- viability, T/C [2]: 74.7%
- viability, T/C (second compound 0.01 µM, first compound 0.000316 µM): 89.8%
- viability, T/C (second compound 0.01 µM, first compound 0.001 µM): 99.5%
- viability, T/C (second compound 0.01 µM, first compound 0.00316 µM): 92.2%
- viability, T/C (second compound 0.01 µM, first compound 0.01 µM): 101%
- viability, T/C [3]: 78%
- viability, T/C [4]: 60.9%
- viability, T/C (second compound 0.0316 µM, first compound 0.000316 µM): 72.4%
- viability, T/C (second compound 0.0316 µM, first compound 0.001 µM): 79.9%
- viability, T/C (second compound 0.0316 µM, first compound 0.00316 µM): 73.2%
- viability, T/C (second compound 0.0316 µM, first compound 0.01 µM): 73.8%
- viability, T/C [5]: 86.3%
- viability, T/C [6]: 74.3%
- viability, T/C (second compound 0.1 µM, first compound 0.000316 µM): 64.2%
- viability, T/C (second compound 0.1 µM, first compound 0.001 µM): 49.7%
- viability, T/C (second compound 0.1 µM, first compound 0.00316 µM): 64.5%
- viability, T/C (second compound 0.1 µM, first compound 0.01 µM): 59.3%
- viability, T/C [7]: 62.1%
- viability, T/C [8]: 54.6%
- viability, T/C (second compound 0.316 µM, first compound 0.000316 µM): 46.7%
- viability, T/C (second compound 0.316 µM, first compound 0.001 µM): 39%
- viability, T/C (second compound 0.316 µM, first compound 0.00316 µM): 37%
- viability, T/C (second compound 0.316 µM, first compound 0.01 µM): 42.2%
- viability, T/C [9]: 45.5%
- viability, T/C [10]: 44.7%
- viability, T/C (second compound 1 µM, first compound 0.000316 µM): 41.5%
- viability, T/C (second compound 1 µM, first compound 0.001 µM): 37.3%
- viability, T/C (second compound 1 µM, first compound 0.00316 µM): 34.8%
- viability, T/C (second compound 1 µM, first compound 0.01 µM): 33.5%
- viability, T/C [11]: 34.3%
- viability, T/C [12]: 27.9%

- IC50 (second compound 0.00316 µM): > 10 µM
- IC50 (second compound 0.01 µM): > 10 µM
- IC50 (second compound 0.0316 µM): > 10 µM
- IC50 (second compound 0.1 µM): > 10 µM
- IC50 (second compound 0.316 µM): 0.388 µM
- IC50 (second compound 1 µM): < 0.0316 µM
SMILES: CNC(=O)c1ccc(N2C(=S)N(c3ccc(C#N)c(C(F)(F)F)c3)C(=O)C2(C)C)cc1F + COc1c(OCCCN2CCOCC2)ccc2c3n(c(=NC(=O)c4cnc(N)nc4)nc12)CCN3
- viability, T/C [1]: 92%
- viability, T/C [2]: 90%
- viability, T/C (second compound 0.00316 µM, first compound 0.316 µM): 73.3%
- viability, T/C (second compound 0.00316 µM, first compound 1 µM): 93%
- viability, T/C (second compound 0.00316 µM, first compound 3.16 µM): 113%
- viability, T/C (second compound 0.00316 µM, first compound 10 µM): 102%
- viability, T/C [3]: 90%
- viability, T/C [4]: 82.7%
- viability, T/C (second compound 0.01 µM, first compound 0.316 µM): 65.7%
- viability, T/C (second compound 0.01 µM, first compound 1 µM): 87.3%
- viability, T/C (second compound 0.01 µM, first compound 3.16 µM): 105%
- viability, T/C (second compound 0.01 µM, first compound 10 µM): 120%
- viability, T/C [5]: 78%
- viability, T/C [6]: 64.9%
- viability, T/C (second compound 0.0316 µM, first compound 0.316 µM): 64.5%
- viability, T/C (second compound 0.0316 µM, first compound 1 µM): 60.9%
- viability, T/C (second compound 0.0316 µM, first compound 3.16 µM): 79.9%
- viability, T/C (second compound 0.0316 µM, first compound 10 µM): 66%
- viability, T/C [7]: 65.7%
- viability, T/C [8]: 64.3%
- viability, T/C (second compound 0.1 µM, first compound 0.316 µM): 64.5%
- viability, T/C (second compound 0.1 µM, first compound 1 µM): 51%
- viability, T/C (second compound 0.1 µM, first compound 3.16 µM): 53.3%
- viability, T/C (second compound 0.1 µM, first compound 10 µM): 64.6%
- viability, T/C [9]: 50.3%
- viability, T/C [10]: 50.3%
- viability, T/C (second compound 0.316 µM, first compound 0.316 µM): 54.5%
- viability, T/C (second compound 0.316 µM, first compound 1 µM): 34.8%
- viability, T/C (second compound 0.316 µM, first compound 3.16 µM): 37.5%
- viability, T/C (second compound 0.316 µM, first compound 10 µM): 54.2%
- viability, T/C [11]: 35%
- viability, T/C [12]: 36.5%
- viability, T/C (second compound 1 µM, first compound 0.316 µM): 39.8%
- viability, T/C (second compound 1 µM, first compound 1 µM): 34.6%
- viability, T/C (second compound 1 µM, first compound 3.16 µM): 36.6%
- viability, T/C (second compound 1 µM, first compound 10 µM): 28.1%

- IC50 (second compound 0.00316 µM): 2.85 µM
- IC50 (second compound 0.01 µM): 2.08 µM
- IC50 (second compound 0.0316 µM): 1.01 µM
- IC50 (second compound 0.1 µM): 0.332 µM
- IC50 (second compound 0.316 µM): < 0.00949 µM
- IC50 (second compound 1 µM): < 0.00949 µM
SMILES: Cn1cnc2c(F)c(Nc3ccc(Br)cc3Cl)c(C(=O)NOCCO)cc21 + COc1c(OCCCN2CCOCC2)ccc2c3n(c(=NC(=O)c4cnc(N)nc4)nc12)CCN3
- viability, T/C (second compound 0.00316 µM, first compound 0.00949 µM): 85.7%
- viability, T/C (second compound 0.00316 µM, first compound 0.03 µM): 79.2%
- viability, T/C (second compound 0.00316 µM, first compound 0.0949 µM): 87.5%
- viability, T/C (second compound 0.00316 µM, first compound 0.3 µM): 67.9%
- viability, T/C (second compound 0.00316 µM, first compound 0.949 µM): 80.5%
- viability, T/C (second compound 0.00316 µM, first compound 3 µM): 48.7%
- viability, T/C (second compound 0.01 µM, first compound 0.00949 µM): 106%
- viability, T/C (second compound 0.01 µM, first compound 0.03 µM): 86.6%
- viability, T/C (second compound 0.01 µM, first compound 0.0949 µM): 66.9%
- viability, T/C (second compound 0.01 µM, first compound 0.3 µM): 79.9%
- viability, T/C (second compound 0.01 µM, first compound 0.949 µM): 87%
- viability, T/C (second compound 0.01 µM, first compound 3 µM): 33.4%
- viability, T/C (second compound 0.0316 µM, first compound 0.00949 µM): 80.1%
- viability, T/C (second compound 0.0316 µM, first compound 0.03 µM): 61.2%
- viability, T/C (second compound 0.0316 µM, first compound 0.0949 µM): 51.7%
- viability, T/C (second compound 0.0316 µM, first compound 0.3 µM): 53.2%
- viability, T/C (second compound 0.0316 µM, first compound 0.949 µM): 57.6%
- viability, T/C (second compound 0.0316 µM, first compound 3 µM): 15.3%
- viability, T/C (second compound 0.1 µM, first compound 0.00949 µM): 49.2%
- viability, T/C (second compound 0.1 µM, first compound 0.03 µM): 59.9%
- viability, T/C (second compound 0.1 µM, first compound 0.0949 µM): 49.6%
- viability, T/C (second compound 0.1 µM, first compound 0.3 µM): 53.1%
- viability, T/C (second compound 0.1 µM, first compound 0.949 µM): 19.8%
- viability, T/C (second compound 0.1 µM, first compound 3 µM): 1.95%
- viability, T/C (second compound 0.316 µM, first compound 0.00949 µM): 28.5%
- viability, T/C (second compound 0.316 µM, first compound 0.03 µM): 65.1%
- viability, T/C (second compound 0.316 µM, first compound 0.0949 µM): 46.9%
- viability, T/C (second compound 0.316 µM, first compound 0.3 µM): 23.9%
- viability, T/C (second compound 0.316 µM, first compound 0.949 µM): 1.63%
- viability, T/C (second compound 0.316 µM, first compound 3 µM): 1.2%
- viability, T/C (second compound 1 µM, first compound 0.00949 µM): 44.2%
- viability, T/C (second compound 1 µM, first compound 0.03 µM): 25.5%
- viability, T/C (second compound 1 µM, first compound 0.0949 µM): 32.3%
- viability, T/C (second compound 1 µM, first compound 0.3 µM): 16.7%
- viability, T/C (second compound 1 µM, first compound 0.949 µM): 1.19%
- viability, T/C (second compound 1 µM, first compound 3 µM): 1.28%
